This passage reports SER2 (concentration and IC50 results from patent publication US9586951B2 (FUJIFILM Corporation, priority 2013, dated 2017).

In assay [1] the test system is human non-small cell lung cancer cell line NCI-H460. Briefly: Cell proliferation inhibition test by sensitivity-enhancing to ionizing radiation (Cell Titer Glo). The class given is cell-based. Conditions: Homo sapiens, concentration in which SER became 2, NCI-H460 cells, ionizing radiation 2 Gy, cultured 120 hour. In outline:
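Radiosensitisation measured as SER, a ratio of Cell Titer Glo luminescence in irradiated vs unirradiated plates relative to DMSO; SER2, the concentration yielding SER 2, came from sigmoidal regression. Compound (0.1% DMSO) was given 24 h post-seeding, 2 Gy applied 30 min later, then 120 hour culture at 37° C.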
Background: Cellular ATP, detected with luciferase, serves as a proxy for viable cell number.

The target of a further assay is T1, ATM (Homo sapiens, UniProt Q13315).
T1 construct: detecting phosphorylation of Chk2 in a human non-small cell lung cancer cell line NCI-H460 (ATCC company); host or cells: NCI-H460 human non-small cell lung cancer cells
T1 sequence (Q13315 whole entry): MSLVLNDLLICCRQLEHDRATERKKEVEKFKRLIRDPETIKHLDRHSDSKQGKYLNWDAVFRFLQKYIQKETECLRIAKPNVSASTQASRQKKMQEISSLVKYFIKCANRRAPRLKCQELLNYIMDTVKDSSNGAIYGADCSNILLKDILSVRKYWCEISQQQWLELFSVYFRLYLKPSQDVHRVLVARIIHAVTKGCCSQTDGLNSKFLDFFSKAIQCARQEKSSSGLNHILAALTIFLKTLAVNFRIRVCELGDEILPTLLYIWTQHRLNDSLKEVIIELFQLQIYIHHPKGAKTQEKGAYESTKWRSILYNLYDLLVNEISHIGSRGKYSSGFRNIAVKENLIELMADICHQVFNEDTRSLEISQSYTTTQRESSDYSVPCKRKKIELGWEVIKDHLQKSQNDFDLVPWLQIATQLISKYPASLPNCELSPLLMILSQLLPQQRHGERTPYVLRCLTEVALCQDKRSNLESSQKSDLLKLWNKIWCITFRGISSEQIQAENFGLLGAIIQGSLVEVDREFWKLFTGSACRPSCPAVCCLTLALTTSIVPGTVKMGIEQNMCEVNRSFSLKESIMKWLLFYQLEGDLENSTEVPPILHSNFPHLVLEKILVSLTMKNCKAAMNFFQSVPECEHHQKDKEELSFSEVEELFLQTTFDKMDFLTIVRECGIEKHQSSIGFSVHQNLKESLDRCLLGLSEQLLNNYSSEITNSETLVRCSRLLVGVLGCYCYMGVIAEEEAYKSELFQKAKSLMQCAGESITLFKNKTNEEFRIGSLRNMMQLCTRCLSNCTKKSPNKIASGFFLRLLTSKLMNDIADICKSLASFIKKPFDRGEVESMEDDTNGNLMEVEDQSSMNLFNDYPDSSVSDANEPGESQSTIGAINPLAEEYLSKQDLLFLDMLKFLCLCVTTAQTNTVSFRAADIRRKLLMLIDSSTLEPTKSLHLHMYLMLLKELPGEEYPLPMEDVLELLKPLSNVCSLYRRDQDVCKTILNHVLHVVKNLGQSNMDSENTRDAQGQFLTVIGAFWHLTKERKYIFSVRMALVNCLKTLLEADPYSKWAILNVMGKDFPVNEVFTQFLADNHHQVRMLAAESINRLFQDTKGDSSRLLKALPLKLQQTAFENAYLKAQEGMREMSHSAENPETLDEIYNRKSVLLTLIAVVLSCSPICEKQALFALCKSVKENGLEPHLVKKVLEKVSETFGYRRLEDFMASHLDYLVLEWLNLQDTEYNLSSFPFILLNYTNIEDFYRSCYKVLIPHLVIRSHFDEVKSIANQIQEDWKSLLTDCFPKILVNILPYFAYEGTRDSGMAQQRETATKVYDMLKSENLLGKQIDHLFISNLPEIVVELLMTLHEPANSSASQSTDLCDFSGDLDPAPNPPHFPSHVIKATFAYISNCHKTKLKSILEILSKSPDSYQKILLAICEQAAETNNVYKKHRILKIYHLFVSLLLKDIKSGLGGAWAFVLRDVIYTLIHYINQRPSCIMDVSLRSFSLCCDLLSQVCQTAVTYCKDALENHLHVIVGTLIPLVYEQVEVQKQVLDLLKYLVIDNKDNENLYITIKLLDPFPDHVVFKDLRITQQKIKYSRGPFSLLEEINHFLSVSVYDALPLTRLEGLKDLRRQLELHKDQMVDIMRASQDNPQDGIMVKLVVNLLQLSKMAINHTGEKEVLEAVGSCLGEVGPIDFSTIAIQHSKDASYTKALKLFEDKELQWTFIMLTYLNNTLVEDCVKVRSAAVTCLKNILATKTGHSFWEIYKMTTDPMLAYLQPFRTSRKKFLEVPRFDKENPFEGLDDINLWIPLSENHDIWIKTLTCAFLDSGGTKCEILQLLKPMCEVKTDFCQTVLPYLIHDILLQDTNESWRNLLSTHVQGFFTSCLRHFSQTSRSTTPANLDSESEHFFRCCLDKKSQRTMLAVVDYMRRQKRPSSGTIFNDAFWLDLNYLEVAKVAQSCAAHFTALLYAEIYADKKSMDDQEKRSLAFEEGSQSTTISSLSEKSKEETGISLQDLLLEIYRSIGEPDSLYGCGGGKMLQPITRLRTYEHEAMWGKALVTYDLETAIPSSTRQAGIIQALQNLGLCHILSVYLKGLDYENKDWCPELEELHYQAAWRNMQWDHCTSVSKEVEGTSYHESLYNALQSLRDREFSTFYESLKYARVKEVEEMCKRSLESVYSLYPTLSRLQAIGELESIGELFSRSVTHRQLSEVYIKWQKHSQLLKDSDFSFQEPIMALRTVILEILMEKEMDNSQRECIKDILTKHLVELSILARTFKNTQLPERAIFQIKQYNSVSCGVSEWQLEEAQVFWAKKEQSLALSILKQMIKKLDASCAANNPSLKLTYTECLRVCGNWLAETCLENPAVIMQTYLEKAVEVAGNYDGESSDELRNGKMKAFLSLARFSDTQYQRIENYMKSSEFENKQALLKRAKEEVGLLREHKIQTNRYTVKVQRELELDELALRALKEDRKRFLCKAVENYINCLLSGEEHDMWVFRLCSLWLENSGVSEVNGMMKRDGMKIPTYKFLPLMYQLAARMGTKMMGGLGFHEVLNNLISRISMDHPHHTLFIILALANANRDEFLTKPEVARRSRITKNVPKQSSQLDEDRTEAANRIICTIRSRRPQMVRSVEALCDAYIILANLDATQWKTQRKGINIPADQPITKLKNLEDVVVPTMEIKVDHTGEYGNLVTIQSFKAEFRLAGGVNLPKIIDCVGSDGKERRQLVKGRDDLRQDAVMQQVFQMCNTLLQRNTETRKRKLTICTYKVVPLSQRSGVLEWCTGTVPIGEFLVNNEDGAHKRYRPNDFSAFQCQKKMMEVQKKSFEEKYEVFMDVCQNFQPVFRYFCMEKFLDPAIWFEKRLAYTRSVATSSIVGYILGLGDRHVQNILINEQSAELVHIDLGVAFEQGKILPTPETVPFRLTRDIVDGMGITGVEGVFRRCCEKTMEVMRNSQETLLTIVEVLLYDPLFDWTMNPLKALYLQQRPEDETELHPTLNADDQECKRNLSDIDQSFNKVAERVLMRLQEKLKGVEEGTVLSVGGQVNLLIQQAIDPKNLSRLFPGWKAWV
Briefly: ATM inhibition test (phosphorylation of Chk2 generated by ionizing radiation, AlphaScreen SureFire). Type of assay: cell-based. The conditions noted are these: phosphorylated Chk2 in NCI-H460 cells, ionizing radiation 8Gy, 1 hour after test compound treatment; read-out: ATM inhibitory activity. The method, boiled down: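 Human NCI-H460 lung cancer cells were treated with compound for 1 h, then irradiated at 8Gy and incubated 1 h at 37° C. Phospho-Chk2 was quantified by AlphaScreen SureFire; inhibition % was normalised between irradiated untreated and non-irradiated untreated wells.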
On the technique in general: Bead proximity is the source of the signal in Alpha formats.

`O=c1cc(N2CCOCC2)cc(-c2cccc3c2Sc2ccc(NC(CF)CN4CCCCC4)cc2S3)[nH]1` (centres unmarked) [Example 1-41-2, 6-(7-((1-Fluoro-3-(piperidin-1-yl)propan-2-yl)amino)thianthren-1-yl)-4-morpholinopyridin-2(1H)-one]: the SER2 (concentration at which the radiation sensitivity-enhancement ratio reaches 2) in assay [1] was 100 to 500 nM. Besides, the IC50 on ATM was < 100 nM.
Regarding `CC(Nc1ccc2c(c1)Cc1cccc(-c3cc(N4CCOCC4)cc(=O)[nH]3)c1O2)c1nccc(CF)n1` (centres unmarked) [Example 2-14-61, 6-(7-((1-(4-(Fluoromethyl)pyrimidin-2-yl)ethyl)amino)-9H-xanthen-4-yl)-4-morpholino pyridin-2(1H)-one], the SER2 (concentration at which the radiation sensitivity-enhancement ratio reaches 2) in assay [1] (NCI-H460, 120 h) is < 100 nM. The IC50 at ATM is < 100 nM.
For the molecule `O=c1cc(N2CCOCC2)cc(-c2cccc3c2Oc2ccc(NCc4cccc(Cl)n4)cc2S3)[nH]1` [Example 4-4-20, 6-(8-(((6-Chloropyridin-2-yl)methyl)amino)phenoxathiin-4-yl)-4-morpholino pyridin-2(1H)-one], the SER2 (concentration at which the radiation sensitivity-enhancement ratio reaches 2) in assay [1] (NCI-H460, 120 h) is 100 to 500 nM. Moreover, the IC50 at ATM was < 100 nM.
For `Cc1cncc(C(C)Nc2ccc3c(c2)Sc2cccc(-c4cc(N5CCOCC5)cc(=O)[nH]4)c2O3)c1` (centres unmarked) [Example 4-4-29, 6-(8-((1-(5-Methylpyridin-3-yl)ethyl)amino)phenoxathiin-4-yl)-4-morpholino pyridin-2(1H)-one], in that order: 100 to 500 nM and < 100 nM.
Turning to `COc1cccc(CNc2ccc3c(c2)Sc2cccc(-c4cc(N5CCOCC5)cc(=O)[nH]4)c2O3)n1` [Example 4-8-18, 6-(8-(((6-Methoxypyridin-2-yl)methyl)amino)phenoxathiin-4-yl)-4-morpholino pyridin-2 (1H)-one], the SER2 (concentration at which the radiation sensitivity-enhancement ratio reaches 2) in assay [1] (NCI-H460, 120 h) was 100 to 500 nM. At ATM, the IC50 was < 100 nM.
As to `CN(C)c1cnc(CNc2ccc3c(c2)Sc2cccc(-c4cc(N5CCOCC5)cc(=O)[nH]4)c2O3)cn1` [Example 4-4-17, 6-(8-(((5-(Dimethylamino)pyrazin-2-yl)methyl)amino)phenoxathiin-4-yl)-4-morpholino pyridin-2(1H)-one], the SER2 (concentration at which the radiation sensitivity-enhancement ratio reaches 2) in assay [1] (NCI-H460, 120 h) was in the range of 100 to 500 nM. On ATM, the IC50 is < 100 nM.
The matching figures for `COc1cccnc1CNc1ccc2c(c1)Sc1cccc(-c3cc(N4CCOCC4)cc(=O)[nH]3)c1O2` [Example 4-4-22, 6-(8-(((3-Methoxypyridin-2-yl)methyl)amino)phenoxathiin-4-yl)-4-morpholino pyridin-2(1H)-one]: 500 to 2000 nM and < 100 nM.
The matching figures for `Cn1cc(-c2ccnc(CNc3ccc4c(c3)Cc3cccc(-c5cc(N6CCOCC6)cc(=O)[nH]5)c3O4)c2)cn1` [Example 2-2-74, 6-(7-(((4-(1-Methyl-1H-pyrazol-4-yl)pyridin-2-yl)methyl)amino)-9H-xanthen-4-yl)-4-morpholino pyridin-2(1H)-one]: 100 to 500 nM and < 100 nM.
Regarding `O=c1cc(N2CCOCC2)cc(-c2cccc3c2Oc2ccc(NC4CCN(CCc5ccccc5)CC4)cc2S3)[nH]1` [Example 4-10, 4-Morpholino-6-(8-((1-phenethylpiperidin-4-yl)amino)phenoxathiin-4-yl)pyridin-2(1H)-one], in assay [1] (NCI-H460, 120 h), the SER2 (concentration at which the radiation sensitivity-enhancement ratio reaches 2) was 100 to 500 nM. Besides, on ATM, the IC50 was < 100 nM.
`COCC(Nc1ccc2c(c1)Cc1cccc(-c3cc(N4CCOCC4)cc(=O)[nH]3)c1O2)c1cccc(C)n1` (centres unmarked) [Example 2-14-45, 6-(7-((2-Methoxy-1-(6-methylpyridin-2-yl)ethyl)amino)-9H-xanthen-4-yl)-4-morpholino pyridin-2 (1H)-one]: in assay [1] (NCI-H460, 120 h), the SER2 (concentration at which the radiation sensitivity-enhancement ratio reaches 2) was 100 to 500 nM. Further, the IC50 at ATM is < 100 nM.
In the case of `Cc1ccc(C(Nc2ccc3c(c2)Sc2cccc(-c4cc(N5CCOCC5)cc(=O)[nH]4)c2S3)C2CCCN(C)C2)nc1` (centres unmarked) [Example 1-22-10, 6-(7-(((1-Methylpiperidin-3-yl)(5-methylpyridin-2-yl)methyl)amino)thianthren-1-yl)-4-morpholino pyridin-2(1H)-one], the SER2 (concentration at which the radiation sensitivity-enhancement ratio reaches 2) in assay [1] (NCI-H460, 120 h) was in the range of 100 to 500 nM. For the same molecule, on ATM, the IC50 was < 100 nM.
On to `COc1cncc(C(C)Nc2ccc3c(c2)Sc2cccc(-c4cc(N5CCOCC5)cc(=O)[nH]4)c2S3)c1` (single isomer, unassigned) [Example 1-12-145-1, 6-(7-((1-(5-methoxypyridin-3-yl)ethyl)amino)thianthren-1-yl)-4-morpholinopyridin-2(1H)-one], for which the SER2 (concentration at which the radiation sensitivity-enhancement ratio reaches 2) in assay [1] (NCI-H460, 120 h) is 100 to 500 nM. On ATM, the IC50 was < 100 nM.
Consider `Cc1ccc(C(Nc2ccc3c(c2)Sc2cccc(-c4cc(N5CCOCC5)cc(=O)[nH]4)c2S3)C2CC2)nc1` (centres unmarked) [Example 1-12-123, 6-(7-((Cyclopropyl(5-methylpyridin-2-yl)methyl)amino)thianthren-1-yl)-4-morpholino pyridin-2(1H)-one], for which the SER2 (concentration at which the radiation sensitivity-enhancement ratio reaches 2) in assay [1] (NCI-H460, 120 h) lay in the range of 100 to 500 nM. Further, on ATM, the IC50 is < 100 nM.
For `COc1cncc(CNc2ccc3c(c2)Sc2cccc(-c4cc(N5CCOCC5)cc(=O)[nH]4)c2O3)c1` [Example 4-8-1, 6-(8-(((5-Methoxypyridin-3-yl)methyl)amino)phenoxathiin-4-yl)-4-morpholinopyridin-2(1H)-one], in that order: 100 to 500 nM and < 100 nM.
For the molecule `O=c1cc(N2CCOCC2)cc(-c2cccc3c2Oc2ccc(NCc4cncc(-n5cccc5)c4)cc2C3)[nH]1` [Example 2-2-58, 6-(7-(((5-(1H-Pyrrol-1-yl)pyridin-3-yl)methyl)amino)-9H-xanthen-4-yl)-4-morpholino pyridin-2(1H)-one], the SER2 (concentration at which the radiation sensitivity-enhancement ratio reaches 2) in assay [1] (NCI-H460, 120 h) lay in the range of 500 to 2000 nM. The IC50 at ATM was < 100 nM.
`CCCN1CCC(Nc2ccc3c(c2)Cc2cccc(-c4cc(N5CCOCC5)cc(=O)[nH]4)c2O3)CC1` [Example 2-28-32, 4-Morpholino-6-(7-((1-propylpiperidin-4-yl)amino)-9H-xanthen-4-yl) pyridin-2(1H)-one]: in assay [1] (NCI-H460, 120 h), the SER2 (concentration at which the radiation sensitivity-enhancement ratio reaches 2) was 500 to 2000 nM. Moreover, the IC50 on ATM is < 100 nM.
Turning to `COc1cc(CNc2ccc3c(c2)Sc2cccc(-c4cc(N5CCOCC5)cc(=O)[nH]4)c2O3)cnc1OC` [Example 4-4-12, 6-(8-(((5,6-Dimethoxypyridin-3-yl)methyl)amino)phenoxathiin-4-yl)-4-morpholino pyridin-2(1H)-one], in assay [1] (NCI-H460, 120 h), the SER2 (concentration at which the radiation sensitivity-enhancement ratio reaches 2) was in the range of 100 to 500 nM. In addition, the IC50 on ATM was < 100 nM.
As for `COCCOCC(Nc1ccc2c(c1)Sc1cccc(-c3cc(N4CCOCC4)cc(=O)[nH]3)c1S2)c1ncc(C)cn1` (centres unmarked) [Example 1-12-98, 6-(7-((2-(2-Methoxyethoxy)-1-(5-methylpyrimidin-2-yl)ethyl)amino)thianthren-1-yl)-4-morpholino pyridin-2(1H)-one], in assay [1] (NCI-H460, 120 h), the SER2 (concentration at which the radiation sensitivity-enhancement ratio reaches 2) is 100 to 500 nM. For the same molecule, on ATM, the IC50 is < 100 nM.
As to `CNc1ncc(CNc2ccc3c(c2)Sc2cccc(-c4cc(N5CCOCC5)cc(=O)[nH]4)c2O3)cn1` [Example 4-4-13, 6-(8-(((2-(Methylamino)pyrimidin-5-yl)methyl)amino)phenoxathiin-4-yl)-4-morpholino pyridin-2(1H)-one], the SER2 (concentration at which the radiation sensitivity-enhancement ratio reaches 2) in assay [1] (NCI-H460, 120 h) fell in the range of 100 to 500 nM. In addition, the IC50 on ATM is < 100 nM.
